Assay results reported in patent US9751885B2, “Cyclopropanamine compound and use thereof” (Takeda Pharmaceutical Company Limited, priority 2012, dated 2017).
Structures can show the parent of a compound that is named as a salt. Where two headings read alike, the source gives them in different places.

How the values were obtained:
[1] = tested on: white blood cell number, red blood cell number, platelet number; experiment: Evaluation of blood cell number in mouse; assay type: in vivo; conditions: oral, Day 2 after administration
Experimental: Evaluation of Blood Cell Number in Mouse
(§1) Male ICR mice (hereinafter mice) were acclimated for at least one week in a rearing facility. The mice were raised in a rearing room with controlled temperature and humidity under a 12:12 hour light-dark cycle, and allowed free ingestion of feed and water.
The compounds were suspended in 0.5% methylcellulose/0.02% citric acid/distilled water and orally administered. All compounds were administered to the mice at a dose of 1 mg/kg, 10 mg/kg, 50 mg/kg or 100 mg/kg (body weight). On Day 2 after the administration of the compound, the whole blood was collected.
Using Sysmex XT-1800i (Sysmex Corporation), the white blood cell number, red blood cell number, and platelet number in the collected whole blood per unit volume were measured. The influence of each compound on each blood cell number was determined by comparing the number with the mean of each blood cell number of the mouse without administration of the compound (control group), and the numerical value of each blood cell number of a mouse with the administration of the compound is shown in percentage. percentage (%) of blood cell number of compound administration group as compared to control group=(mean blood cell number of compound administration group mean blood cell number of compound non-administration group)×100

[2] = Evaluation of hippocampal distribution in mouse; assay type: in vivo; conditions: male ICR mice, 10 mg/kg oral; for concentration at 0.5 h / Kp at 0.5 h: 0.5 hr after administration
Experimental: Evaluation of Hippocampal Distribution in Mouse
as §1
The compounds were suspended in 0.5% methylcellulose/0.02% citric acid/distilled water and orally administered. All compounds were administered to the mice at a dose of 10 mg/kg (body weight).
Blood samples were collected at 0.5 hr, or 1 hr, or 1.5 hr from compound administration, and the hippocampus was isolated simultaneously. The plasma concentration and hippocampus concentration of each test compound were measured by the LC/MS/MS method, the ratio (hippocampus/plasma concentration ratio) was calculated, and distribution into hippocampus was evaluated.

[3] = hippocampus, read-out: hippocampus concentration (mean)
[4] = hippocampus/plasma, read-out: hippocampus/plasma concentration ratio (mean)
[5] = plasma, read-out: plasma concentration (mean)

| Compound | platelet number, percentage of compound administration group compared to control group, mean ([1]; 10 mg/kg) | red blood cell number, percentage of compound administration group compared to control group, mean ([1]; 10 mg/kg) | white blood cell number, percentage of compound administration group compared to control group, mean ([1]; 10 mg/kg) | platelet number, percentage of compound administration group compared to control group, mean ([1]; 100 mg/kg) | red blood cell number, percentage of compound administration group compared to control group, mean ([1]; 100 mg/kg) | white blood cell number, percentage of compound administration group compared to control group, mean ([1]; 100 mg/kg) | concentration at 0.5 h [2, 3] | Kp at 0.5 h [2, 4] | concentration at 0.5 h [2, 5] | concentration at 1 h ([2]; hippocampus, 1 hr after administration, read-out: hippocampus concentration (mean)) | Kp at 1 h ([2]; hippocampus/plasma, 1 hr after administration, read-out: hippocampus/plasma concentration ratio (mean)) | concentration at 1 h ([2]; plasma, 1 hr after administration, read-out: plasma concentration (mean)) |
| --- | --- | --- | --- | --- | --- | --- | --- | --- | --- | --- | --- | --- |
| O=C(NC1CCOCC1)c1cccc([C@@H]2C[C@H]2NCC2CC2)c1 (relative stereo) [Example 100, 3-(trans-2-((cyclopropylmethyl)amino)cyclopropyl)-N-(tetrahydro-2H-pyran-4-yl)benzamide hydrochloride] | 98.1% | 92.9% | 99.4% | 91.0% | 98.8% | 104.8% | 207 ng/g | 0.24 | 889 ng/mL | – | – | – |
| O=C(NC1CCC(F)(F)CC1)c1cccc([C@@H]2C[C@H]2NCC2CC2)c1 (relative stereo) [Example 102, 3-(trans-2-((cyclopropylmethyl)amino)cyclopropyl)-N-(4,4-difluorocyclohexyl)benzamide hydrochloride] | 97.7% | 99.5% | 107.0% | 94.7% | 104.9% | 116.8% | – | – | – | 482 ng/g | 1.84 | 268 ng/mL |
| Cc1cc(NC(=O)c2cccc([C@@H]3C[C@H]3NCC3CC3)c2)n(C)n1 (relative stereo) [Example 107, 3-(trans-2-((cyclopropylmethyl)amino)cyclopropyl)-N-(1,3-dimethyl-1H-pyrazol-5-yl)benzamide dihydrochloride] | 95.4% | 98.4% | 86.6% | 91.1% | 102.2% | 132.7% | 242 ng/g | 0.09 | 2560 ng/mL | – | – | – |
| O=C(NC1CCOCC1)c1cc([C@@H]2C[C@H]2NCC2CC2)ccc1F (relative stereo) [Example 111, 5-(trans-2-((cyclopropylmethyl)amino)cyclopropyl)-2-fluoro-N-(tetrahydro-2H-pyran-4-yl)benzamide hydrochloride] | 101.2% | 98.7% | 136.9% | 98.4% | 99.1% | 97.9% | 1300 ng/g | 1.59 | 823 ng/mL | – | – | – |
| Cc1nnc(NC(=O)c2cccc([C@@H]3C[C@H]3NCC3CCOCC3)c2)s1 (relative stereo) [Example 112, N-(5-methyl-1,3,4-thiadiazol-2-yl)-3-(trans-2-((tetrahydro-2H-pyran-4-ylmethyl)amino)cyclopropyl)benzamide dihydrochloride] | 92.8% | 99.4% | 112.0% | 86.3% | 102.0% | 136.1% | 614 ng/g | 0.36 | 1710 ng/mL | – | – | – |
